# PubChem BioAssay (NCI)
#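 Results reflect a 48-hour exposure of cells in 96-well plates to compound at five concentrations. GI50 = concentration required for 50% inhibition of growth. TGI: total growth inhibition.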
# Assays:
# Assay in all cases: DTP human tumour cell line panel, 48 h
# [1] = test system: NCI-H23 lung
# [2] = test system: HOP-62 NSCLC
# [3] = test system: UACC-257 melanoma
# [4] = test system: A498 renal
# [5] = test system: DU-145 prostate
# [6] = test system: MALME-3M melanoma
# [7] = test system: SF-539 CNS
# [8] = test system: CAKI-1 renal
# [9] = test system: SW-620 colon
# [10] = test system: KM12 colon
# [11] = test system: BT-549 breast
# [12] = test system: LOX IMVI melanoma
# [13] = test system: NCI-H460 lung
# [14] = test system: SK-MEL-2 melanoma
# [15] = test system: PC-3 prostate
# [16] = test system: HL-60(TB) leukemia
# [17] = test system: NCI-H226 lung
# [18] = test system: OVCAR-4 ovarian
# [19] = test system: SF-295 CNS
# [20] = test system: UACC-62 melanoma
# [21] = test system: IGROV1 ovarian
# [22] = test system: COLO 205 colon
# [23] = test system: TK-10 renal
# [24] = test system: OVCAR-5 ovarian
# [25] = test system: K-562 leukemia
# [26] = test system: HS 578T breast
# [27] = test system: T-47D breast
# [28] = test system: HCT-15 colon
# [29] = test system: UO-31 renal
# [30] = test system: SK-MEL-5 melanoma
# [31] = test system: MCF7 breast
# [32] = test system: SNB-19 CNS
# [33] = test system: OVCAR-8 ovarian
# [34] = test system: ACHN renal
# [35] = test system: NCI-H522 lung
# [36] = test system: 786-0 renal
# [37] = test system: A549 NSCLC
# [38] = test system: SF-268 CNS
# [39] = test system: HT29 colon
# [40] = test system: EKVX NSCLC
# [41] = test system: SN12C renal
# [42] = test system: SNB-75 CNS
# [43] = test system: MDA-MB-231 breast
# [44] = test system: HCT-116 colon
# [45] = test system: SK-OV-3 ovarian
# [46] = test system: MDA-MB-435
# [47] = test system: CCRF-CEM leukemia
# [48] = test system: HCC-2998 colon
# [49] = test system: RPMI-8226 leukemia
# [50] = test system: NCI/ADR-RES ovarian
# [51] = test system: M14 melanoma
# [52] = test system: SK-MEL-28 melanoma
# [53] = test system: OVCAR-3 ovarian
# [54] = test system: HOP-92 NSCLC
# [55] = test system: MOLT-4 leukemia
# [56] = test system: SR leukemia
smiles,measurement,setting,value
CN(C)CCCOc1ccc(C(=C(c2ccccc2)C2CCCC2)c2ccc(OCCCN(C)C)cc2)cc1,GI50,[1],4.95 µM
same,TGI,[1],17.5 µM
same,GI50,[2],14.6 µM
same,TGI,[2],32.6 µM
same,GI50,[3],10.7 µM
same,TGI,[3],24.1 µM
same,GI50,[4],13.8 µM
same,TGI,[4],28.5 µM
same,GI50,[5],4.43 µM
same,TGI,[5],15.2 µM
same,GI50,[6],1.64 µM
same,TGI,[6],3.01 µM
same,GI50,[7],1.69 µM
same,TGI,[7],3.06 µM
same,GI50,[8],3.62 µM
same,TGI,[8],13.6 µM
same,GI50,[9],1.58 µM
same,TGI,[9],3.02 µM
same,GI50,[10],3.56 µM
same,TGI,[10],13.1 µM
same,GI50,[11],15.3 µM
same,TGI,[11],30.8 µM
same,GI50,[12],1.63 µM
same,TGI,[12],2.99 µM
same,GI50,[13],1.69 µM
same,TGI,[13],3.16 µM
same,GI50,[14],11.6 µM
same,TGI,[14],24.1 µM
same,GI50,[15],3.26 µM
same,TGI,[15],14.2 µM
same,GI50,[16],2.03 µM
same,TGI,[16],4.44 µM
same,GI50,[17],2.81 µM
same,TGI,[17],11.4 µM
same,GI50,[18],1.91 µM
same,TGI,[18],4.34 µM
same,GI50,[19],1.85 µM
same,TGI,[19],3.98 µM
same,GI50,[20],1.6 µM
same,TGI,[20],2.98 µM
same,GI50,[21],2.07 µM
same,TGI,[21],4.58 µM
same,GI50,[22],1.71 µM
same,TGI,[22],3.62 µM
same,GI50,[23],14.6 µM
same,TGI,[23],28.9 µM
same,GI50,[24],1.85 µM
same,TGI,[24],4.68 µM
same,GI50,[25],2.02 µM
same,TGI,[25],5.26 µM
same,GI50,[26],2.13 µM
same,TGI,[26],5.53 µM
same,GI50,[27],9.86 µM
same,TGI,[27],25.3 µM
same,GI50,[28],1.67 µM
same,TGI,[28],3.22 µM
same,GI50,[29],1.54 µM
same,TGI,[29],3.08 µM
same,GI50,[30],12.1 µM
same,TGI,[30],24.5 µM
same,GI50,[31],1.33 µM
same,TGI,[31],2.69 µM
same,GI50,[32],2.15 µM
same,TGI,[32],5.67 µM
same,GI50,[33],1.98 µM
same,TGI,[33],4.87 µM
same,GI50,[34],2.12 µM
same,TGI,[34],4.7 µM
same,GI50,[35],1.55 µM
same,TGI,[35],3.12 µM
same,GI50,[36],2.62 µM
same,TGI,[36],8.3 µM
same,GI50,[37],3.47 µM
same,TGI,[37],16.6 µM
same,GI50,[38],2.51 µM
same,TGI,[38],7.16 µM
same,GI50,[39],1.97 µM
same,TGI,[39],3.97 µM
same,GI50,[40],7.43 µM
same,TGI,[40],21.3 µM
same,GI50,[41],1.64 µM
same,TGI,[41],3.04 µM
same,GI50,[42],9.08 µM
same,TGI,[42],22.1 µM
same,GI50,[43],1.74 µM
same,TGI,[43],3.22 µM
same,GI50,[44],1.89 µM
same,TGI,[44],4.13 µM
same,GI50,[45],17.1 µM
same,TGI,[45],33 µM
same,GI50,[46],1.7 µM
same,TGI,[46],3.09 µM
same,GI50,[47],2.58 µM
same,TGI,[47],6.85 µM
same,GI50,[48],1.93 µM
same,TGI,[48],3.91 µM
same,GI50,[49],2.17 µM
same,TGI,[49],5.75 µM
same,GI50,[50],2.85 µM
same,GI50,[51],1.85 µM
same,TGI,[51],3.74 µM
same,GI50,[52],1.62 µM
same,TGI,[52],3.01 µM
same,GI50,[53],2.16 µM
same,TGI,[53],5.19 µM
same,GI50,[54],2.72 µM
same,TGI,[54],15.2 µM
same,GI50,[55],2.56 µM
same,TGI,[55],6.34 µM
same,GI50,[56],2 µM
same,TGI,[56],7.36 µM
